Experimental data published in patent publication EP1038864A1, “NOVEL METALLOPROTEINASE INHIBITORS” (FUJI YAKUHIN KOGYO KABUSHIKI KAISHA, priority 1997, dated 1999).
pIC50: −log10 of the molar value. Like-named read-outs stand apart in the source and are kept apart here.

Columns and labels:
[1] = target: TNF-α Convertase (Homo sapiens, UniProt P78536); assay: Assay for inhibition of TNF-α production in LPS-stimulated, PMA-differentiated U937 cells
Description: Human monocytic leukemia cell line U937 (human histiocytic lymphoma cell line U937) cells were cultured in RPMI 1640 (Nissui Pharmaceutical Co., Ltd., Japan) supplemented with 5% fetal calf serum (FCS; IBL, Japan) in an incubator at 37°C under 5% CO2, then transferred to multiplates at a density of 1 x 10^6 cells/1 ml/well, and incubated overnight in the presence of 10^-7 M phorbol 12-myristate 13-acetate (Wako Pure Chemical Industries, Ltd., Japan) to form differentiated macrophage-like cells. To the resultant cells was added E. coli O127:B8 lipopolysaccaride (LPS, 0.1 µg/ml; Sigma) alone or along with each compound of the present invention, and the treated cells were then incubated for 6 hours in an incubator under 5% CO2 at 37°C. After the incubation, the cultures were collected and centrifuged at 3000 rpm for 10 minutes to give supernatants which were diluted with purified water and then assayed using a TNF-α assay kit, Genzyme (Table 3).

[2] = target: T1, human fibroblast collagenase (Homo sapiens, UniProt P03956); assay: Assay for inhibition of collagenase (fluorescein-labeled bovine type I collagen substrate); type: biochemical
T1 sequence (P03956 100-469): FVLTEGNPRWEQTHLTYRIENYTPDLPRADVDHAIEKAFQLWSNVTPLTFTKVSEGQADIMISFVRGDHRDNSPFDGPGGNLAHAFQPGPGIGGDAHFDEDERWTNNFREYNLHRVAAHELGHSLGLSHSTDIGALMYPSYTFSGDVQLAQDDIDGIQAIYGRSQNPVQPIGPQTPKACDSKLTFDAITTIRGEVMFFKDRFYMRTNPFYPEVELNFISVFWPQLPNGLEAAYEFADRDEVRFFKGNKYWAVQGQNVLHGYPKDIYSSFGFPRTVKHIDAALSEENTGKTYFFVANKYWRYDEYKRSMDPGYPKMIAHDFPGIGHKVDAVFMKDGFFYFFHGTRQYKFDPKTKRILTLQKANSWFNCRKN
Description: (§1) Described below are assays for biological activities of the compounds according to the present invention, formulations, dosage forms and dosage levels thereof, and miscellaneous matters. The efficacy of the compounds represented by the formula (I) according to the present invention as inhibitors of human fibroblast collagenase (metalloproteinase involved in the breakdown of tissues) is determined by a procedure based on the method of Y. Murawaki et al., Journal of Hepatology, 18, p328-334 (1993). The efficacy of the compounds (I) of this invention as inhibitors of human fibroblast stromelysin is determined by a procedure based on the method of S. S. Twining, Anal. Biochem., 143, p30 (1984). The assay results obtained are shown hereinbelow, together with biological examples which illustrate embodiments of the assay protocols.
The efficacy of compounds of the present invention to act as inhibitors of human fibroblast collagenase was determined by the procedure of Y. Murawaki et al. (Journal of Hepatology, 18, p.328-334, 1993), compared with a reference compound.
Procollagenase was activated by incubation with 2 mM 4-aminophenylmercuric acetate (APMA) at 35°C for 2 hours. The inhibition was assayed using, as a substrate, fluorescein-labeled bovine type I collagen. To a solution of the substrate (0.5 mg/ml) in a 50 mM Tris-HCl buffer, pH 7.5, containing 0.4M aqueous sodium chloride and 10 mM aqueous […] was added the activated collagenase. The resultant solution was incubated at 35°C for 2 hours. The digestion of the substrate with the enzyme was stopped by addition of 80 mM o-phenanthroline, followed by addition of a porcine elastase solution formed by dissolving 25 µg/ml porcine elastase in the aforementioned Tris-HCl buffer. The mixture was incubated at 37°C for 10 minutes. To the resulting solution was added 70% ethanol, and a 170 mM Tris-HCl buffer, pH 9.5, containing 0.67M aqueous sodium chloride. Undigested substrates were precipitated by centrifugation at 3000 x g for 20 minutes. The supernatant was collected and the fluorescence was read using an excitation wavelength of 495 nm and an emission wavelength of 520 nm. The inhibitory potency of the compounds was calculated. […] The resulting assay data for representative examples are shown in Table 1, compared with the reference compound. […]

[3] = target: human fibroblast stromelysin (Homo sapiens, UniProt P08254); assay: Assay for inhibition of stromelysin (fluorescein-labeled casein substrate); type: biochemical
Chain of human fibroblast stromelysin (P08254 100-477): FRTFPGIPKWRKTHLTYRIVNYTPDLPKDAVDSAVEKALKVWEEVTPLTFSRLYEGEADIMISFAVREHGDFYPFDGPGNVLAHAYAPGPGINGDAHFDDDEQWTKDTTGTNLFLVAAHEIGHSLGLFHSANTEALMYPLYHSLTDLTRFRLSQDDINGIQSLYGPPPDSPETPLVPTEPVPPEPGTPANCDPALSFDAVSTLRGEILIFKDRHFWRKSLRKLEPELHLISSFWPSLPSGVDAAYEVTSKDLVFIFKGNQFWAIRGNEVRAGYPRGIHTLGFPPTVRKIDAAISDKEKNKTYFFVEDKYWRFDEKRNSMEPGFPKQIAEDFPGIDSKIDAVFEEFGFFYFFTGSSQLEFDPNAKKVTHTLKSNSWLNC
Description: as §1
The efficacy of compounds of the present invention to act as inhibitors of human fibroblast stromelysin was determined by the procedure of Twining (Anal. Biochem., 143, p.30, 1984), compared with a reference compound.
Prostromelysin was activated by incubation with 20 µg/ml human plasmin at 37°C for 2 hours, and the reaction was stopped by addition of 2.8 mg/ml aqueous diisopropyl fluorophosphate. The inhibition was assayed using, as a substrate, fluorescein-labeled casein. To a solution of the substrate (1 mg/ml) in a 50 mM Tris-HCl buffer, pH 7.8, containing 10mM aqueous calcium chloride was added the activated stromelysin. The resultant solution was incubated at 37°C for 2 hours. The digestion of the substrate with the enzyme was stopped by addition of 5% trichloroacetic acid. Undigested substrates were precipitated by centrifugation at 3000 x g for 20 minutes. The supernatant was collected, followd by additon of a 0.5M Tris-HCl buffer, pH 8.5. The fluorescence was read using an excitation wavelength of 495 nm and an emission wavelength of 520 nm. The inhibitory potency of the compounds was calculated. […] The resulting assay data for representative examples are shown in Table 2, compared with the reference compound.

[4] = in vivo; settings: rat, po, 100 mg/kg
Description: Each compound of the present invention was dissolved in distilled water for injection and orally administered to rats (Lewis strain line, male, body weight: about 200 g) at a dose of 100mg/kg. From 30 minutes to 4 hours after the administration, a series of blood chronologically collected from rat fundus oculi were centrifuged (3000rpm for 10 minutes at 4°C) to give plasma samples. Each plasma sample (200 µl) was filtered through an ultrafiltration membrane by centrifugation at 1500 x G for 3 minutes using a micropartition UF unit (Centrifree-MPS-3: 30,000 MW cut-off, Amicon Corp., Beverly, MA). […] The reaction was stopped by adding 900 µl of 3% aqueous acetic acid to the reaction mixture. The fluorescence of the resulting solution was read using an excitation wavelength of 325 nm and an emission wavelength of 393 nm. The concentration of each test compound in rat plasma samples was calculated using a standard curve which was prepared based on a variety of doses.

[5] = activated human fibroblast procollagenase, 35°C, 2 hours, pH 7.5, read-out: Inhibition of MMP-1
[6] = plasmin-activated human fibroblast prostromelysin, 37°C, 2 hours, pH 7.8, read-out: Inhibition of MMP-3
[7] = read-out: Inhibition of TACE, U937 cells, LPS 0.1 µg/ml, 6 hours, TNF-α in supernatant by assay kit
[8] = read-out: Inhibition of MMP-3, plasmin-activated human fibroblast prostromelysin, 37°C, 2 hours, pH 7.8

Chain of TNF-α Convertase (P78536 215-824): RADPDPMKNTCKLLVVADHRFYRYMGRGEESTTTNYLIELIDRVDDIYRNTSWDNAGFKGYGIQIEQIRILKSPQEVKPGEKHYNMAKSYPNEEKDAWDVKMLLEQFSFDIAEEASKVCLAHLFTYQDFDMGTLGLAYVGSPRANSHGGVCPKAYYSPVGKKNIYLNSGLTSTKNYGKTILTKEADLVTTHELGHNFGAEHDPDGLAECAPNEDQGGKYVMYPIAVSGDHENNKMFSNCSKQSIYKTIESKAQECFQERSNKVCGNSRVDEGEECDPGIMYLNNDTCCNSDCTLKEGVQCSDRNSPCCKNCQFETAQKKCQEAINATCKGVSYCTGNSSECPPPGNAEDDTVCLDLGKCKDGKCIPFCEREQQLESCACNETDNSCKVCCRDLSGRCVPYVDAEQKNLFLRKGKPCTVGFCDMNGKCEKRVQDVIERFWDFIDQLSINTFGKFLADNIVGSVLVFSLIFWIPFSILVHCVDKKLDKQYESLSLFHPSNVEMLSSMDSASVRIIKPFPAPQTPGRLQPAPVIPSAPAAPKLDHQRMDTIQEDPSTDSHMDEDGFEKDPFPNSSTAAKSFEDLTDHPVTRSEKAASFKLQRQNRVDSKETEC

Row | pIC50 [1] | pIC50 [2, 5] | SMILES | further results
1 |  | 7.85 | CC(=N)NCCCCC(NC(=O)C(CC(C)C)C(CCCc1ccccc1)C(=O)NO)C(=O)NCCO (single isomer, unassigned) [Compound No. 36, N^a-[4-(Hydroxyamino)-2(R)-isobutyl-3(R or S)-(3-phenylpropyl)-succinyl]-N^e-acetimidoyl-L-lysine N-(2-hydroxyethyl)amide · 1 acetate] | pIC50 [3, 6]: 8.05
2 | 6.22 | 7.89 | CNC(=O)C(CCCNC(=N)N)NC(=O)C(CC(C)C)C(Cc1ccc(CNS(=O)(=O)c2ccc(C)cc2)cc1)C(=O)NO (single isomer, unassigned) [Compound No. 50, N^a-[4-(Hydroxyamino)-2(R)-isobutyl-3(R or S)-[p-(p-toluenesulfonamidomethyl)benzyl]succinyl]-L-arginine N-methylamide · 1 acetate] | pIC50 [3, 6]: 8.05
3 | 6.37 | 8.05 | CNC(=O)C(CCCNC(=N)N)NC(=O)C(CC(C)C)C(Cc1ccc(CN2C(=O)c3ccccc3C2=O)cc1)C(=O)NO (single isomer, unassigned) [Compound No. 51, N^a-[4-(Hydroxyamino)-2(R)-isobutyl-3(R or S)-(p-phthalimidomethylbenzyl)succinyl]-L-arginine N-methylamide · 1 acetate] | pIC50 [3, 6]: 8.70
4 |  |  | CNC(=O)[C@H](CCCCN)NC(=O)[C@H](CC(C)C)C(CCCc1ccc(CN)cc1)C(=O)NO (single isomer, unassigned) [Compound No. 61, N^a-[4-(Hydroxyamino)-2(R)-isobutyl-3(R or S)-(3-(p-aminomethylphenyl)propyl]succinyl]-L-lysine N-methylamide· 2 acetate] | AUC at 4 h [4]: 13800 ng·h/mL; pIC50 [1, 7]: 5.96; pIC50 [3, 8]: 7.64
5 |  |  | CCCCOCCC(C(=O)NO)[C@@H](CC(C)C)C(=O)N[C@@H](CCCCN)C(=O)NC (single isomer, unassigned) [Compound No. 69, N^a-[4-(Hydroxyamino)-2(R)-isobutyl-3(R or S)-(2-n-butyloxyethyl)succinyl]-L-lysine N-methylamide· 1 acetate] | AUC at 4 h [4]: 3340 ng·h/mL; pIC50 [3, 8]: 7.70
6 | 6.45 | 8.40 | CNC(=O)[C@H](CCCCN)NC(=O)[C@H](CC(C)C)C(CCCc1cccc(C(=O)OC)c1)C(=O)NO (single isomer, unassigned) [Compound No. 71, N^a-[4-(Hydroxyamino)-2(R)-isobutyl-3(R or S)-[3-(m-methoxycarbonylphenyl)propyl]succinyl]-L-lysine N-methylamide· 1 acetate] | 
7 | 6.60 |  | CNC(=O)[C@H](CCCCN)NC(=O)[C@H](CC(C)C)C(CCCc1ccc(O)cc1)C(=O)NO (single isomer, unassigned) [Compound No. 72, N^a-[4-(Hydroxyamino)-2(R)-isobutyl-3(R or S)-[3-(p-hydroxyphenyl)propyl]succinyl]-L-lysine N-methylamide· 1 acetate] | AUC at 4 h [4]: 4040 ng·h/mL
8 |  |  | CNC(=O)[C@H](CCCCN)NC(=O)[C@H](C(C)C)C(CCCc1ccccc1)C(=O)NO (single isomer, unassigned) [Compound No. 74, N^a-[4-(Hydroxyamino)-2(R)-isopropyl-3(R or S)-(3-phenylpropyl)succinyl]-L-lysine N-methylamide· 1 acetate] | AUC at 4 h [4]: 9020 ng·h/mL; pIC50 [1, 7]: 6.22; pIC50 [3, 8]: 7.21
9 | 6.13 | 7.89 | CNC(=O)C(CCCN)NC(=O)C(CC(C)C)C(CCCc1ccc(CNC(=N)N)cc1)C(=O)NO (single isomer, unassigned) [Compound No. 81, N^a-[4-(Hydroxyamino)-2(R)-isobutyl-3(R or S)-[3-(p-guanidomethylphenyl)propyl]succinyl]-L-ornithine N-methylamide · 2 acetate] | 
10 |  | 8.40 | CNC(=O)C(CCCCN)NC(=O)C(CC(C)C)C(CCCN1C(=O)N(C)C(C)(C)C1=O)C(=O)NO (single isomer, unassigned) [Compound No. 82, N^a-[4-(Hydroxyamino)-2(R)-isobutyl-3(R or S)-(3-(3,4,4-trimethyl-2,5-dioxo-imidazolidin-1-yl)propyl]succinyl]-L-lysine N-methylamide] | 
11 |  | 7.96 | CC(C)CC(C(=O)NO)[C@@H](CC(C)C)C(=O)N[C@@H](Cc1ccc(CN)cc1)C(=O)NCCC(=O)O (single isomer, unassigned) [Compound No. 84, N^a-[4-(Hydroxyamino)-2(R),3(R or S)-diisobutylsuccinyl]-4'-aminomethyl-L-phenylalanine N-(2-carboxyethyl)amide· 1 acetate] | 
12 |  | 8.00 | CNC(=O)C(CCCNC(=N)N)NC(=O)C(CC(C)C)C(C)C(=O)NO [Compound No. 25, N^a-[4-(Hydroxyamino)-2(R)-isobutyl-3(RS)-methylsuccinyl]-L-arginine N-methylamide · 1 acetate] | 
13 |  | 8.15 | CNC(=O)C(CCNC(=N)N)NC(=O)C(CC(C)C)C(CC(C)C)C(=O)NO [Compound No. 27, N^4-[3-Guanidino-1(S)-methylcarbamoylpropyl]-N^1-hydroxy-3(R),2(RS)-diisobutylsuccinamide · 1 acetate] | pIC50 [3, 6]: 7.22
14 |  | 8.00 | CNC(=O)C(CCCCNC(C)=N)NC(=O)C(CC(C)C)C(CCCc1ccccc1)C(=O)NO [Compound No. 30, N^a-[4-(Hydroxyamino)-2(R)-isobutyl-3(RS)-(3-phenylpropyl)-succinyl]-N^e-acetimidoyl-L-lysine N-methylamide · 1 acetate] | pIC50 [3]: 7.92
15 |  | 7.77 | CC(=N)NCc1ccc(CC(NC(=O)C(CC(C)C)C(CC(C)C)C(=O)NO)C(=O)NCCO)cc1 [Compound No. 91, N^a-[4-(Hydroxyamino)-2(R),3(RS)-diisobutylsuccinyl]-4'-acetimidoyliminomethyl-L-phenylalanine N-(2-hydroxyethyl)amide· 2 acetate] | 
16 |  |  | CNC(=O)[C@@H](NC(=O)[C@H](CC(C)C)[C@H](O)C(=O)NO)C(C)(C)C [Reference Compound No. 2, reference compound] | AUC at 4 h [4]: 1570 ng·h/mL

Row | SMILES | pIC50 [1] | pIC50 [2, 5] | further results
17 | CNC(=O)[C@H](CCCNC(=N)N)NC(=O)[C@H](CC(C)C)C(CC(C)C)C(=O)NO (single isomer, unassigned) [Compound No. 24, N^a-[4-(Hydroxyamino)-2(R),3(R or S)-diisobutylsuccinyl]-L-arginine N-methylamide · 1 acetate] | 6.32 |  | pIC50 [2]: 8.30; pIC50 [3]: 7.74
18 | CCCOC[C@H](C(=O)N[C@@H](Cc1ccc(OC)cc1)C(=O)NC)[C@H](CSC(C)C)C(=O)NO [Reference Compound No. 1, N-[4-(N-hydroxyamino)-2(R)-n-propyloxymethyl-3(S)-isopropyl-thiomethylsuccinyl)-O-methyl-L-tyrosine-N-methylamide, reference compound] |  | 7.96 | 
